Source: US9707243B2, “Topical composition with vitamin D3” (priority 2014, dated 2017)

Assay: Randomized control study of daily topical application in women with low vitamin D
Assay type: in vivo, human
Settings: 3 months
Method: A study was carried out on 50 women with low vitamin D. The women were healthy and unmarried. Age, weight, height, and detailed medical history were recorded. Meticulous clinical examination was performed to rule out any diseases. A complete blood picture, including serum calcium, phosphorous, alkaline phosphatase, Parathormone and 25 Hydroxy-vitamin D (25OHD), was obtained. Two women had >30 ng/mL of 25OHD and were excluded from the study. The 25-Hydroxy Vitamin D3 level was measured in house by chemiluminescence immunoassay (CLIA), and 30 ng/mL was taken as normal, 21-29 ng/mL as insufficiency and 20 ng/mL as deficiency.
The participants were divided into two groups of 24 women each. All participants unequivocally agreed not to change their dietary habits and life style until the study was over. The group of women participating in the study were asked to apply the topical composition with Vitamin D3. Each gram of the composition delivered 5000 IU of vitamin D3. The second group used 1 gram of aloe vera gel. The participants had no knowledge to which group they belong. A second blood sample was taken at the end of 3 months, and the data was entered in the database and analyzed using a t-test to compare means between the two groups for all the parameters tested before and after topical use of VD and AVG. […]

Q: For `C=C1CC[C@H](O)C/C1=C/C=C1\CCC[C@]2(C)[C@@H]([C@H](C)CCCC(C)C)CC[C@@H]12` [Vitamin D3, cholecalciferol], which “safety of delivery through the dermal route” value is on record?
A: can safely be delivered through the dermal route
